According to US7928098B2, “Therapeutic and/or preventive agents for a sleep disorder” (Kyowa Hakko Kirin Co., Ltd., priority 2005, dated 2011):

SMILES	melting point
COc1cccc(C(=O)c2sc(NC(=O)c3ccncc3)nc2-c2ccco2)n1 [Compound 191, N-[4-(2-Furyl)-5-(6-methoxypyridin-2-ylcarbonyl)thiazol-2-yl]pyridine-4-carboxamide]	247 to 250 °C
Cc1cccc(C(=O)c2sc(NC(=O)c3ccncc3)nc2-c2ccco2)n1 [Compound 192, N-[4-(2-Furyl)-5-(6-methylpyridin-2-ylcarbonyl)thiazol-2-yl]pyridine-4-carboxamide]	238 to 241 °C
Cc1ccc(C(=O)c2sc(NC(=O)c3ccncc3)nc2-c2ccco2)nc1 [Compound 202, N-[4-(2-Furyl)-5-(5-methylpyridin-2-ylcarbonyl)thiazol-2-yl]pyridine-4-carboxamide]	255 to 257 °C
Cc1ccnc(C(=O)c2sc(NC(=O)c3ccncc3)nc2-c2ccco2)c1 [Compound 203, N-[4-(2-Furyl)-5-(4-methylpyridin-2-ylcarbonyl)thiazol-2-yl]pyridine-4-carboxamide]	240 to 245 °C
O=C(Nc1nc(-c2ccco2)c(C(=O)c2cccnc2)s1)c1ccncc1 [Compound 211, N-[4-(2-Furyl)-5-(pyridin-3-ylcarbonyl)thiazol-2-yl]pyridine-4-carboxamide]	245 to 248 °C
O=C(c1cccnc1)c1sc(NC(=O)C2CC2)nc1-c1ccco1 [Compound 212, N-[4-(2-Furyl)-5-(pyridin-3-ylcarbonyl)thiazol-2-yl]cyclopropanecarboxamide]	231 to 233 °C
N#Cc1ccc(C(=O)Nc2nc(-c3ccco3)c(C(=O)c3cccnc3)s2)cc1 [Compound 213, 4-Cyano-N-[4-(2-furyl)-5-(pyridin-3-ylcarbonyl)thiazol-2-yl]benzamide]	288 to 290 °C
O=C(Nc1nc(-c2ccco2)c(C(=O)c2cccnc2)s1)c1ccco1 [Compound 214, N-[4-(2-Furyl)-5-(pyridin-3-ylcarbonyl)thiazol-2-yl]furan-2-carboxamide]	234 to 236 °C
Cc1ncccc1C(=O)c1sc(NC(=O)c2ccncc2)nc1-c1ccco1 [Compound 217, N-[4-(2-Furyl)-5-(2-methylpyridin-3-ylcarbonyl)thiazol-2-yl]pyridine-4-carboxamide]	230 to 234 °C
Cc1ccc(C(=O)c2sc(NC(=O)c3ccncc3)nc2-c2ccco2)cn1 [Compound 220, N-[4-(2-Furyl)-5-(2-methylpyridin-5-ylcarbonyl)thiazol-2-yl]pyridine-4-carboxamide]	230 to 232 °C (dec.)
Cc1ccc(C(=O)c2sc(NC(=O)c3ccc(C#N)cc3)nc2-c2ccco2)cn1 [Compound 221, 4-Cyano-N-[4-(2-furyl)-5-(2-methylpyridin-5-ylcarbonyl)thiazol-2-yl]benzamide]	261 to 265 °C
Cc1ccc(C(=O)c2sc(NC(=O)c3ccco3)nc2-c2ccco2)cn1 [Compound 222, N-[4-(2-Furyl)-5-(2-methylpyridin-5-ylcarbonyl)thiazol-2-yl]furan-2-carboxamide]	197 to 209 °C
Cc1ccc(C(=O)c2sc(NC(=O)c3ccoc3)nc2-c2ccco2)cn1 [Compound 223, N-[4-(2-Furyl)-5-(2-methylpyridin-5-ylcarbonyl)thiazol-2-yl]furan-3-carboxamide]	229 to 231 °C
COc1ccc(C(=O)c2sc(NC(=O)c3ccncc3)nc2-c2ccco2)cn1 [Compound 226, N-[4-(2-Furyl)-5-(2-methoxypyridin-5-ylcarbonyl)thiazol-2-yl]pyridine-4-carboxamide]	246 to 257 °C (dec.)
CN(C)c1ccc(C(=O)c2sc(NC(=O)c3ccncc3)nc2-c2ccco2)cn1 [Compound 230, N-{5-[2-(Dimethylamino)pyridin-5-ylcarbonyl]-4-(2-furyl)thiazol-2-yl}pyridine-4-carboxamide]	260 to 265 °C (dec.)
O=C(Nc1nc(-c2ccco2)c(C(=O)c2ccc(N3CCOCC3)nc2)s1)c1ccncc1 [Compound 231, N-[4-(2-Furyl)-5-(2-morpholinopyridin-5-ylcarbonyl)thiazol-2-yl]pyridine-4-carboxamide]	195 to 220 °C
CN1CCN(c2ccc(C(=O)c3sc(NC(=O)c4ccncc4)nc3-c3ccco3)cn2)CC1 [Compound 232, N-{4-(2-Furyl)-5-[2-(4-methylpiperazin-1-yl)pyridin-5-ylcarbonyl]thiazol-2-yl}pyridine-4-carboxamide]	195 to 205 °C
O=C(Nc1nc(-c2ccco2)c(C(=O)c2ccc(N3CCC(O)CC3)nc2)s1)c1ccncc1 [Compound 233, N-{4-(2-Furyl)-5-[2-(4-hydroxypiperidino)pyridin-5-ylcarbonyl]thiazol-2-yl}pyridine-4-carboxamide]	264 to 268 °C
O=C(Nc1nc(-c2ccco2)c(C(=O)c2ccncc2)s1)c1ccncc1 [Compound 236, N-[4-(2-Furyl)-5-(pyridin-4-ylcarbonyl)thiazol-2-yl]pyridine-4-carboxamide]	276 to 285 °C
Cc1cc(C(=O)c2sc(NC(=O)c3ccncc3)nc2-c2ccco2)ccn1 [Compound 239, N-[4-(2-Furyl)-5-(2-methylpyridin-4-ylcarbonyl)thiazol-2-yl]pyridine-4-carboxamide]	223 to 225 °C

SMILES	melting point
Cc1cc(C(=O)Nc2nc(-c3ccco3)c(C(=O)c3ccnc(C)c3)s2)ccn1 [Compound 240, N-[4-(2-Furyl)-5-(2-methylpyridin-4-ylcarbonyl)thiazol-2-yl]-2-methylpyridine-4-carboxamide]	205 to 229 °C
COc1cc(C(=O)c2sc(NC(=O)c3ccncc3)nc2-c2ccco2)ccn1 [Compound 243, N-[4-(2-Furyl)-5-(2-methoxypyridin-4-ylcarbonyl)thiazol-2-yl]pyridine-4-carboxamide]	237 to 239 °C
O=C(Nc1nc(-c2ccco2)c(C(=O)c2ccnc(N3CCOCC3)c2)s1)c1ccncc1 [Compound 246, N-[4-(2-Furyl)-5-(2-morpholinopyridin-4-ylcarbonyl)thiazol-2-yl]pyridine-4-carboxamide]	270 to 273 °C
O=C(Nc1nc(-c2ccco2)c(C(=O)c2ccco2)s1)c1ccncc1 [Compound 249, N-[4-(Furan-2-yl)-5-(furan-2-ylcarbonyl)thiazol-2-yl]pyridine-4-carboxamide]	245 to 248 °C
Cc1ccc(C(=O)c2sc(NC(=O)c3ccncc3)nc2-c2ccco2)o1 [Compound 250, N-[4-(2-Furyl)-5-(5-methylfuran-2-ylcarbonyl)thiazol-2-yl]pyridine-4-carboxamide]	185 to 189 °C
O=C(Nc1nc(-c2ccco2)c(C(=O)c2ccoc2)s1)c1ccncc1 [Compound 253, N-[4-(Furan-2-yl)-5-(furan-3-ylcarbonyl)thiazol-2-yl]pyridine-4-carboxamide]	217 to 231 °C
O=C(Nc1nc(-c2ccco2)c(C(=O)c2cccs2)s1)c1ccncc1 [Compound 254, N-[4-(2-Furyl)-5-(thiophen-2-ylcarbonyl)thiazol-2-yl]-pyridine-4-carboxamide]	208 to 210 °C
O=C(Nc1nc(-c2ccco2)c(C(=O)c2nccs2)s1)c1ccncc1 [Compound 255, N-[4-(2-Furyl)-5-(thiazol-2-ylcarbonyl)thiazol-2-yl]pyridine-4-carboxamide]	228 to 240 °C
Cc1cnc(C(=O)c2sc(NC(=O)c3ccncc3)nc2-c2ccco2)s1 [Compound 256, N-[4-(2-Furyl)-5-(5-methylthiazol-2-ylcarbonyl)thiazol-2-yl]pyridine-4-carboxamide]	275 to 277 °C (dec.)
Cc1csc(C(=O)c2sc(NC(=O)c3ccncc3)nc2-c2ccco2)n1 [Compound 257, N-[4-(2-Furyl)-5-(4-methylthiazol-2-ylcarbonyl)thiazol-2-yl]pyridine-4-carboxamide]	250 to 255 °C
Cc1nc(C(=O)c2sc(NC(=O)c3ccncc3)nc2-c2ccco2)sc1C [Compound 258, N-[5-(4,5-Dimethylthiazol-2-ylcarbonyl)-4-(2-furyl)thiazol-2-yl]pyridine-4-carboxamide]	270 to 272 °C (dec.)
O=C(Nc1nc(-c2ccco2)c(C(=O)c2cc[nH]c2)s1)c1ccncc1 [Compound 260, N-[4-(2-Furyl)-5-(pyrrol-3-ylcarbonyl)thiazol-2-yl]pyridine-4-carboxamide]	259 to 260 °C
Cn1ccc(C(=O)c2sc(NC(=O)c3ccncc3)nc2-c2ccco2)c1 [Compound 261, N-[4-(2-Furyl)-5-(1-methylpyrrol-3-ylcarbonyl)thiazol-2-yl]pyridine-4-carboxamide]	209 to 211 °C
CCn1ccc(C(=O)c2sc(NC(=O)c3ccncc3)nc2-c2ccco2)c1 [Compound 262, N-[5-(1-Ethylpyrrol-3-ylcarbonyl)-4-(2-furyl)thiazol-2-yl]pyridine-4-carboxamide]	127 to 134 °C
O=C(Nc1nc(-c2ccco2)c(C(=O)c2ccn(Cc3ccccc3)c2)s1)c1ccncc1 [Compound 263, N-[5-(1-Benzylpyrrol-3-ylcarbonyl)-4-(2-furyl)thiazol-2-yl]pyridine-4-carboxamide]	175 to 178 °C
Cn1cc(C(=O)c2sc(NC(=O)c3ccncc3)nc2-c2ccco2)ccc1=O [Compound 267, N-[4-(2-Furyl)-5-(1-methyl-2-oxo-1,2-dihydropyridin-5-ylcarbonyl)thiazol-2-yl]pyridine-4-carboxamide]	294 to 295 °C
CCn1cc(C(=O)c2sc(NC(=O)c3ccncc3)nc2-c2ccco2)ccc1=O [Compound 269, N-[5-(1-Ethyl-2-oxo-1,2-dihydropyridin-5-ylcarbonyl)-4-(2-furyl)thiazol-2-yl]pyridine-4-carboxamide]	295 to 296 °C
O=C(Nc1nc(-c2ccco2)c(C(=O)c2ccc(=O)n(Cc3ccccc3)c2)s1)c1ccncc1 [Compound 271, N-[5-(1-Benzyl-2-oxo-1,2-dihydropyridin-5-ylcarbonyl)-4-(2-furyl)thiazol-2-yl]pyridine-4-carboxamide]	265 to 282 °C (dec.)
Cn1ccc(C(=O)c2sc(NC(=O)c3ccncc3)nc2-c2ccco2)cc1=O [Compound 274, N-[4-(2-Furyl)-5-(1-methyl-2-oxo-1,2-dihydropyridin-4-ylcarbonyl)thiazol-2-yl]pyridine-4-carboxamide]	243 to 255 °C (dec.)
